Measured values as given in PMC4623676, “Methylation mediated by an anthocyanin, O-methyltransferase, is involved in purple flower coloration in Paeonia” (Journal of Experimental Botany, 2015).

What was measured:
PtAOMT = system: T1, PtAOMT; assay: HPLC of methylated product; format: biochemical, Paeonia tenuifolia; conditions: 200 μM SAM, 1.0 mM MgCl2, 14 mM β-mercaptoethanol, 100 mM Tris/HCl pH 7.5, 35 °C; MBP fusion
T1 construct: gene AOMT; dimer in solution; Arg-87; Gly-13, Thr-85, Thr-205
Text: HPLC of methylated product on PtAOMT | K m of PtAOMT-R87L for Cy3G was slightly lower than its K m for Cy3G5G

PsAOMT = system: T2, PsAOMT; assay: HPLC of methylated product; format: biochemical, Paeonia suffruticosa; conditions: 200 μM SAM, 1.0 mM MgCl2, 14 mM β-mercaptoethanol, 100 mM Tris/HCl pH 7.5, 35 °C; MBP fusion; read-out: PsAOMT / K m
T2 construct: gene AOMT; dimer in solution; Leu-87; differs from PtAOMT at positions 13 (E), 85 (A), 87 (L), 205 (R)
Text: HPLC of methylated product on PsAOMT

Row | SMILES | Km (PtAOMT) [µM] | Km (PsAOMT) [µM]
1 | OC[C@H]1O[C@@H](Oc2cc3c(O[C@@H]4O[C@H](CO)[C@@H](O)[C@H](O)[C@H]4O)cc(O)cc3[o+]c2-c2ccc(O)c(O)c2)[C@H](O)[C@@H](O)[C@@H]1O [Cy3G5G, Cyanidin 3,5-di-O-glucoside] | 8.51 ± 1.39 | 1.06
2 | OC[C@H]1O[C@@H](Oc2cc3c(O)cc(O)cc3[o+]c2-c2ccc(O)c(O)c2)[C@H](O)[C@@H](O)[C@@H]1O [Cy3G, Cyanidin 3-O-glucoside] | 3.53 ± 0.31 | 1.76
3 | OC[C@H]1O[C@@H](Oc2cc3c(O)cc(O)cc3[o+]c2-c2cc(O)c(O)c(O)c2)[C@H](O)[C@@H](O)[C@@H]1O [Dp3G, Delphinidin 3-O-glucoside] |  | 4.11
4 | O=c1cc(-c2ccc(O)c(O)c2)oc2cc(O[C@@H]3O[C@H](CO)[C@@H](O)[C@H](O)[C@H]3O)cc(O)c12 [Lu7G, Luteolin 7-O-glucoside] |  | 146
5 | C[C@@H]1O[C@@H](OC[C@H]2O[C@@H](Oc3c(-c4ccc(O)c(O)c4)oc4cc(O)cc(O)c4c3=O)[C@H](O)[C@@H](O)[C@@H]2O)[C@H](O)[C@H](O)[C@H]1O [Qu3R, Quercetin 3-O-rutinoside] |  | 12.3
6 | O=c1c(O)c(-c2ccc(O)c(O)c2)oc2cc(O)cc(O)c12 [Quercetin] |  | 4.33
